In US8163795B2, “Chroman derivatives, medicaments and use in therapy” (Marshall Edwards, Inc., priority 2004, dated 2012):
Like-named read-outs stand apart in the source and are kept apart here.

Legend:
rabbit kidney cells (RK) = experiment: Proliferation assay (MTT), normal cell toxicity; type: cell-based; details: Oryctolagus cuniculus; rabbit kidney cells; read-out: IC50
Description: The normal cell line NFF (neonatal foreskin fibroblasts) was a sift from Dr. Peter Parsons (Queensland Institute of Medical Research). RK (rabbit kidney) cells were obtained from Miller Whalley (Macquarie University). Both cell lines were cultured in RPMI supplemented with 10% FCS(CSL, Australia), penicillin (100 U/ml), streptomycin ([…]), L-glutamine (2 mM) and sodium bicarbonate (1.2 g/L), and cultured at 37° C. in a humidified atmosphere of 5% CO2.
(§1) IC50 values were determined for each cell line. Cells were seeded in 96-well plates at an appropriate cell density as determined from growth kinetics analysis and cultured for 5 days in the absence and presence of the test compounds. Cell proliferation was assessed after the addition of 20 μl of 3-4,5 dimethylthiazol-2,5-diphenyl tetrazolium bromide (MTT, 2.5 mg/ml in PBS, Sigma) for 3-4 hrs at 37° C. according to manufacturer's instructions. IC50 values were calculated from semi-log plots of % of control proliferation on the y-axis against log dose on the x-axis.

[1] = tested on: CP70 ovarian cancer cell line; experiment: Proliferation assay (MTT); type: cell-based; details: Ovarian CP70, read-out: IC50
[2] = tested on: SKOV-3 ovarian cancer cell line; experiment: Proliferation assay (MTT); type: cell-based; details: Homo sapiens, SK-OV-3; Table 2.1; Ovarian SKOV-3; read-out: IC50
[3] = tested on: MDA-MB-468 breast cancer cell line; experiment: Proliferation assay (MTT); type: cell-based; details: Homo sapiens, Breast MDA-MB-468, read-out: IC50
[4] = DHE and HMC pharmacokinetics, oral, mice; type: in vivo, female BALB/c mice
Description: HMC and DHE were prepared as homogenous suspensions in 1% CMC (m:v, water). Both formulations were delivered orally by gavage to female BALB/c mice at a dosage of 50 mg/kg. Three animals were allocated to each timepoint (15 min, 30 min, 1 hr, 4 hr and 24 hr). At each respective timepoint, animals were euthanased by cervical dislocation and blood collected. Free HMC was analysed by mass spectroscopy.

[5] = HMC and HHC pharmacokinetics, oral, human patients; type: in vivo; details: plasma
Description: Human patients were orally dosed with 200 mg of either HMC or HHC. For each challenged patient, blood was taken over a 6 hour period and the results averaged to characterise the plasma pharmacokinetics.

[6] = tested on: Mel-AT melanoma cells (Trail +ve/Caspase 8 −ve); experiment: Apoptosis incidence in melanoma cells; type: cell-based
[7] = tested on: TRAIL-sensitive and -resistant melanoma cells; experiment: Apoptosis incidence, statements over several melanoma cell lines; type: cell-based; details: for incidence of apoptosis: 4 μM
[8] = tested on: Mel-RM melanoma cell line; experiment: HMC combination with gemcitabine (synergy); type: cell-based; details: for IC50: Table 9, single agent
Description: as §1
3-D model analysis of the cytotoxic interaction between drug A and drug B enables the representation of predicted inhibitory effect of two drugs in combination in 3 dimensions to reveal actual regions of synergy or antagonism. The 3D synergy plots are based on a theory of “Theretical Additivity” (TA) as outlined by Kanzawa et al (Int. J. Cancer 71, 311-319 (1997)). Theoretical Additivity was calculated from the cytotoxicities of drug A and drug B as monotherapies using the following formula which assumes the drugs are mutually exclusive inhibitors: […]
The TA is calculated for each combination of drug concentrations and subtracted from the observed experimental effect for each combination to give a measurement of synergisitic action.
HMC synergy with gemcitabine was assessed either in combination over 5 days exposure or in sequence (HMC→gemcitabine) against the Mel-RM melanoma cell line. It was difficult to assess for synergisitic toxicity using a change in IC50 as a measure of synergy due to HMC toxicity as monotherapy (Table 9). […] Evidence of synergy using the HMC-gemcitabine combination was further assessed using the HMC→gemcitabine sequence (24 hr exposure to each compound in sequence) against the melanoma cell line Mel-RM. Using change in IC50 to assess for synergy it was noted that HMC at concentrations of 2 and 1 μM markedly chemosensitised the Mel-RM cells to gemcitabine by >1000 fold. HMC-induced chemosensitisation of Mel-RM cells to gemcitabine was confirmed using 3D analysis of the data.

PGE2 = experiment: Eicosanoid synthesis in LPS-stimulated murine macrophages (RAW 264.7); type: cell-based, mouse; details: 10 μM; negative values indicate inhibition
Description: (§2) The mouse macrophage cell line RAW 264.7 was cultured in DMEM supplemented with foetal calf serum (FCS), 2 mM glutamine and 50 U/ml penicillin/streptomycin. Subconfluent cells were detached from the flask by gentle scraping and 24-well plates seeded at 5×10^5 cells per well and allowed to adhere for 1 hr. Cells were then treated either test compound at a concentration of 10 μM (in 0.025% DMSO) or vehicle alone, and incubated for 1 hr. LPS 50 ng/ml (LPS—Sigma-Aldrich) was then added. After incubation for 16 hrs, culture media was collected and stored at −80° C. for ecosanoid measurements using enzyme immunometric assays (PGE2 and TXB2—Cayman Chemical).
(§3) Table 16: Percentage change in eicosanoid synthesis after incubating test compound at 10 μM compared with incubation with vehicle alone.

TXB2 = experiment: as above; type: cell-based, mouse; details: 10 μM; negative values indicate inhibition
Description: as §2, §3

[9] = human, po, humans dosed orally with 200 mg

**Q.** For COc1ccc(C2c3ccc(O)cc3OCC2c2ccc(O)cc2)cc1 (stereo not shown) [Compound 1, 3-(4-hydroxyphenyl)-4-(4-methoxyphenyl)chroman-7-ol], which IC50 (rabbit kidney cells (RK)) is on record?
**A.** 61 µM

**Q.** What about the IC50 ([1]; Table 2.1) of the same compound?
**A.** 1.21 ± 0.29 µM

**Q.** What about the IC50 ([1]; Table 2.2 (further studies)) of the same compound?
**A.** 2.1 µM

**Q.** What about the IC50 [2] of the same compound?
**A.** 2.26 µM

**Q.** What about the IC50 ([3]; MDA-MB-468, Table 2.1) of the same compound?
**A.** 1.1 ± 0.35 µM

**Q.** What about the IC50 ([3]; MDA-MB-468, Table 2.2) of the same compound?
**A.** 2.8 ± 4.2 µM

**Q.** What about the concentration at 0.25 hr ([4]; female, BALB/c, mouse, plasma, po, 50 mg/kg p.o., Time 0.25, read-out: Free plasma concentration) of the same compound?
**A.** 380 ± 40 nM

**Q.** And the concentration at 0.5 hr ([4]; female, BALB/c, mouse, plasma, po, 50 mg/kg p.o., Time 0.5, read-out: Free plasma concentration)?
**A.** 1300 ± 200 nM

**Q.** What about the concentration at 1 hr ([4]; female, BALB/c, mouse, plasma, po, 50 mg/kg p.o., Time 1, read-out: Free plasma concentration) of the same compound?
**A.** 950 ± 400 nM

**Q.** What about the concentration at 4 hr ([4]; female, BALB/c, mouse, plasma, po, 50 mg/kg p.o., Time 4, read-out: Free plasma concentration) of the same compound?
**A.** 190 ± 80 nM

**Q.** And the concentration at 24 hr ([4]; female, BALB/c, mouse, plasma, po, 50 mg/kg p.o., Time 24, read-out: Free plasma concentration)?
**A.** 0 nM

**Q.** What about the “maximum plasma concentration of the free form” value ([4]; oral 50 mg/kg) of the same compound?
**A.** 1.3 µM

**Q.** What about the “ratio of free:total” value ([4]; oral 50 mg/kg) of the same compound?
**A.** 0.92

**Q.** What about the “time of maximum free concentration” value ([4]; oral 50 mg/kg) of the same compound?
**A.** 30 min

**Q.** What about the Cmax [5, 9] of the same compound?
**A.** 513 ng/mL

**Q.** And the Tmax [5, 9]?
**A.** 2.17 h

**Q.** And the t1/2 ([5]; humans dosed orally with 200 mg)?
**A.** 3.99 h

**Q.** And the half-life ([5]; human patients, 200 mg oral, initial results)?
**A.** 3.99 h

**Q.** What about the “Percent Apoptosis” value ([6]; 24 hr exposure, 1 uM) of the same compound?
**A.** 0%

**Q.** And the “Percent Apoptosis” value ([6]; 24 hr exposure, 2 uM)?
**A.** 6%

**Q.** What about the “Percent Apoptosis” value ([6]; 24 hr exposure, 4 uM) of the same compound?
**A.** 9%

**Q.** What about the “Percent Apoptosis” value ([6]; 24 hr exposure, 8 uM) of the same compound?
**A.** 23%

**Q.** What about the “Percent Apoptosis” value ([6]; 24 hr exposure, 20 uM) of the same compound?
**A.** 24%

**Q.** And the “Percent Apoptosis” value ([6]; 48 hr exposure, 1 uM)?
**A.** 1%

**Q.** And the “Percent Apoptosis” value ([6]; 48 hr exposure, 2 uM)?
**A.** 7%

**Q.** What about the “Percent Apoptosis” value ([6]; 48 hr exposure, 4 uM) of the same compound?
**A.** 25%

**Q.** And the “Percent Apoptosis” value ([6]; 48 hr exposure, 8 uM)?
**A.** 59%

**Q.** And the “Percent Apoptosis” value ([6]; 48 hr exposure, 20 uM)?
**A.** 35%

**Q.** What about the apoptosis ([7]; 2 μM, 24 and 48 hrs of exposure, all TRAIL-sensitive and -resistant melanoma cells) of the same compound?
**A.** 7-10%

**Q.** What about the incidence of apoptosis ([7]; 24 hr exposure, the other cell lines (not MEL-RM, IGR3)) of the same compound?
**A.** ~9%

**Q.** And the incidence of apoptosis ([7]; 48 hr, all cell lines examined)?
**A.** 21-42%

**Q.** And the IC50 ([8]; 120 h, 5 days exposure, read-out: IC50, Combined (monotherapy))?
**A.** 0.51 µM

**Q.** And the “Change Factor (HMC first)” value ([8]; Gemcitabine block, HMC 1 uM 24 hr then gemcitabine 24 hr)?
**A.** >1000

**Q.** What about the “Change Factor (HMC first)” value ([8]; Gemcitabine block, HMC 2 uM 24 hr then gemcitabine 24 hr) of the same compound?
**A.** >100

**Q.** And the “chemosensitisation of Mel-RM cells to gemcitabine (change in IC50)” value ([8]; HMC 2 and 1 μM, HMC→gemcitabine sequence)?
**A.** > 1000 fold

**Q.** And the IC50 ([8]; 24 hr exposure, read-out: IC50, 24 hr (monotherapy))?
**A.** 27.8 µM

**Q.** What about the “Change Factor (HMC first)” value ([8]; upper block of Table 9, HMC 1 uM first, sequence) of the same compound?
**A.** >1000

**Q.** And the “Change Factor (HMC first)” value ([8]; upper block of Table 9, HMC 2 uM first, sequence)?
**A.** >1000

**Q.** And the “Percentage change in PGE2 synthesis vs vehicle alone” value (PGE2)?
**A.** −33.8%

**Q.** What about the “Percentage change in TXB2 synthesis vs vehicle alone” value (TXB2) of the same compound?
**A.** 0%
